In patent US10597388B2, “Pyridazinone herbicides” (FMC CORPORATION, priority 2014, dated 2020):

Assays:
Experiment in all cases: Test E greenhouse herbicide test, pre- and postemergence
Format in all cases: in vivo
[1] = system: Italian ryegrass (Lolium multiflorum)
Summary of the method: (§1)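 Greenhouse pots; preemergence on silt loam, postemergence on plants 1- to 4-leaf (2 to 18 cm) grown in peat, vermiculite and nutrient medium. Test chemicals formulated in non-phytotoxic solvent with surfactant. Ratings taken after 14 to 21 d.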

[2] = system: barnyardgrass (Echinochloa crus-galli)
Summary of the method: as §1

[3] = system: beggarticks (hairy beggarticks, Bidens pilosa)
Summary of the method: as §1

corn (Zea mays) = system: corn (Zea mays)
Summary of the method: as §1

[4] = system: crabgrass, Brazilian (Brazilian crabgrass, Digitaria horizontalis)
Summary of the method: as §1

[5] = system: crabgrass, large (large crabgrass, Digitaria sanguinalis); details: Preemergence
Summary of the method: as §1

[6] = system: field bindweed (Convolvulus arvensis)
Summary of the method: as §1

[7] = system: foxtail, giant (giant foxtail, Setaria faberii); details: Preemergence
Summary of the method: as §1

[8] = system: foxtail, green (green foxtail, Setaria viridis); details: Preemergence
Summary of the method: as §1

[9] = system: horseweed (Conyza canadensis)
Summary of the method: as §1

kochia (Kochia scoparia) = system: kochia (Kochia scoparia)
Summary of the method: as §1

[10] = system: momingglory (Ipomoea coccinea); details: Preemergence
Summary of the method: as §1

[11] = system: nutsedge, yellow (yellow nutsedge, Cyperus esculentus); details: Preemergence
Summary of the method: as §1

[12] = system: panicum, fall (fall panicum, Panicum dichotomiflorum)
Summary of the method: as §1

[13] = system: pigweed, palmer (palmer pigweed, Amaranthus palmeri)
Summary of the method: as §1

[14] = system: ragweed (common ragweed, Ambrosia elatior)
Summary of the method: as §1

[15] = system: velvetleaf (Abutilon theophrasti); details: Preemergence
Summary of the method: as §1

[16] = 62 g ai/ha, Postemergence, scale 0 to 100 (0 no effect, 100 complete control)
[17] = 125 g ai/ha, Postemergence, scale 0 to 100 (0 no effect, 100 complete control)
[18] = 125 g ai/ha, Preemergence, scale 0 to 100 (0 no effect, 100 complete control)
[19] = Postemergence, 16 g ai/ha, visual, scale 0 no effect to 100 complete control
[20] = Postemergence, 31 g ai/ha, visual, scale 0 no effect to 100 complete control
[21] = Preemergence, 16 g ai/ha, scale 0 to 100, 0 no effect, 100 complete control
[22] = Preemergence, 31 g ai/ha, scale 0 to 100, 0 no effect, 100 complete control
[23] = 62 g ai/ha, Preemergence, scale 0 to 100 (0 no effect, 100 complete control)
[24] = 62 g ai/ha, scale 0 to 100 (0 no effect, 100 complete control)
[25] = 125 g ai/ha, scale 0 to 100 (0 no effect, 100 complete control)
[26] = 16 g ai/ha, scale 0 to 100, 0 no effect, 100 complete control
[27] = 31 g ai/ha, scale 0 to 100, 0 no effect, 100 complete control

`CCC(=O)Oc1c(C)nn(C)c(=O)c1-c1c(C)sc2ccc(Cl)cc12` [Compound 109] was tested, and the “Plant response rating, Ryegrass, Italian” value [1, 16] was 90, the “Plant response rating, Ryegrass, Italian” value [1, 17] was 85 and the “Plant response rating, Ryegrass, Italian” value [1, 18] was 98. The “Plant response rating, Ryegrass, Italian” value [1, 19] was 50, the “Plant response rating, Ryegrass, Italian” value [1, 20] was 75 and the “Plant response rating, Ryegrass, Italian” value [1, 21] was 60. The “Plant response rating, Ryegrass, Italian” value [1, 22] was 75, the “Plant response rating, Barnyardgrass” value [2, 16] was 30 and the “Plant response rating, Barnyardgrass” value [2, 23] was 10. For the same compound, the “Plant response rating, Barnyardgrass” value [2, 17] was 40, the “Plant response rating, Barnyardgrass” value [2, 18] was 25 and the “Plant response rating, Barnyardgrass” value [2, 19] was 25. For the same compound, the “Plant response rating, Barnyardgrass” value [2, 20] was 30, the “Plant response rating, Barnyardgrass” value [2, 21] was 0 and the “Plant response rating, Barnyardgrass” value [2, 22] was 0. The “Plant response rating, Beggarticks” value [3, 16] was 85, the “Plant response rating, Beggarticks” value [3, 23] was 100 and the “Plant response rating, Beggarticks” value [3, 17] was 100. For the same compound, the “Plant response rating, Beggarticks” value [3, 18] was 100, the “Plant response rating, Beggarticks” value [3, 19] was 80 and the “Plant response rating, Beggarticks” value [3, 20] was 90. For the same compound, the “Plant response rating, Beggarticks” value [3, 21] was 20, the “Plant response rating, Beggarticks” value [3, 22] was 75 and the “Plant response rating, Corn” value (corn (Zea mays); [16]) was 10. The “Plant response rating, Corn” value (corn (Zea mays); [23]) was 0, the “Plant response rating, Corn” value (corn (Zea mays); [17]) was 20 and the “Plant response rating, Corn” value (corn (Zea mays); [18]) was 0. For the same compound, the “Plant response rating, Corn” value (corn (Zea mays); [19]) was 0, the “Plant response rating, Corn” value (corn (Zea mays); [20]) was 0 and the “Plant response rating, Corn” value (corn (Zea mays); [21]) was 0. The “Plant response rating, Corn” value (corn (Zea mays); [22]) was 0, the “Plant response rating, Crabgrass, Brazil” value [4, 16] was 30 and the “Plant response rating, Crabgrass, Brazil” value [4, 23] was 40. For the same compound, the “Plant response rating, Crabgrass, Brazil” value [4, 17] was 50, the “Plant response rating, Crabgrass, Brazil” value [4, 18] was 70 and the “Plant response rating, Crabgrass, Brazil” value [4, 19] was 10. The “Plant response rating, Crabgrass, Brazil” value [4, 20] was 40, the “Plant response rating, Crabgrass, Brazil” value [4, 21] was 70 and the “Plant response rating, Crabgrass, Brazil” value [4, 22] was 60. For the same compound, the “Plant response rating, Crabgrass, Large” value [5, 24] was 40, the “Plant response rating, Crabgrass, Large” value [5, 25] was 35 and the “Plant response rating, Crabgrass, Large” value [5, 26] was 0. The “Plant response rating, Crabgrass, Large” value [5, 27] was 0, the “Plant response rating, Field Bindweed” value [6, 16] was 95 and the “Plant response rating, Field Bindweed” value [6, 23] was 40. For the same compound, the “Plant response rating, Field Bindweed” value [6, 17] was 90, the “Plant response rating, Field Bindweed” value [6, 18] was 80 and the “Plant response rating, Field Bindweed” value [6, 19] was 75. For the same compound, the “Plant response rating, Field Bindweed” value [6, 20] was 80, the “Plant response rating, Field Bindweed” value [6, 21] was 0 and the “Plant response rating, Field Bindweed” value [6, 22] was 0. The “Plant response rating, Foxtail, Giant” value [7, 24] was 40, the “Plant response rating, Foxtail, Giant” value [7, 25] was 80 and the “Plant response rating, Foxtail, Giant” value [7, 26] was 0. For the same compound, the “Plant response rating, Foxtail, Giant” value [7, 27] was 35, the “Plant response rating, Foxtail, Green” value [8, 24] was 40 and the “Plant response rating, Foxtail, Green” value [8, 25] was 60. For the same compound, the “Plant response rating, Foxtail, Green” value [8, 26] was 0, the “Plant response rating, Foxtail, Green” value [8, 27] was 0 and the “Plant response rating, Horseweed” value [9, 16] was 90. The “Plant response rating, Horseweed” value [9, 23] was 100, the “Plant response rating, Horseweed” value [9, 17] was 85 and the “Plant response rating, Horseweed” value [9, 18] was 100. For the same compound, the “Plant response rating, Horseweed” value [9, 19] was 60, the “Plant response rating, Horseweed” value [9, 20] was 80 and the “Plant response rating, Horseweed” value [9, 21] was 0. The “Plant response rating, Horseweed” value [9, 22] was 100, the “Plant response rating, Kochia” value (kochia (Kochia scoparia); [16]) was 95 and the “Plant response rating, Kochia” value (kochia (Kochia scoparia); [17]) was 100. The “Plant response rating, Kochia” value (kochia (Kochia scoparia); [18]) was 100, the “Plant response rating, Kochia” value (kochia (Kochia scoparia); [19]) was 80 and the “Plant response rating, Kochia” value (kochia (Kochia scoparia); [20]) was 95. For the same compound, the “Plant response rating, Kochia” value (kochia (Kochia scoparia); [21]) was 0, the “Plant response rating, Kochia” value (kochia (Kochia scoparia); [22]) was 10 and the “Plant response rating, Morningglory” value [10, 25] was 65. For the same compound, the “Plant response rating, Morningglory” value [10, 26] was 0, the “Plant response rating, Morningglory” value [10, 27] was 0 and the “Plant response rating, Nutsedge, Yellow” value [11, 25] was 40. For the same compound, the “Plant response rating, Nutsedge, Yellow” value [11, 26] was 0, the “Plant response rating, Nutsedge, Yellow” value [11, 27] was 0 and the “Plant response rating, Panicum, Fall” value [12, 16] was 65. For the same compound, the “Plant response rating, Panicum, Fall” value [12, 17] was 80, the “Plant response rating, Panicum, Fall” value [12, 18] was 95 and the “Plant response rating, Panicum, Fall” value [12, 19] was 50. The “Plant response rating, Panicum, Fall” value [12, 20] was 60, the “Plant response rating, Panicum, Fall” value [12, 21] was 75 and the “Plant response rating, Panicum, Fall” value [12, 22] was 80. The “Plant response rating, Pigweed, Palmer” value [13, 16] was 65, the “Plant response rating, Pigweed, Palmer” value [13, 17] was 100 and the “Plant response rating, Pigweed, Palmer” value [13, 18] was 85. The “Plant response rating, Pigweed, Palmer” value [13, 19] was 60, the “Plant response rating, Pigweed, Palmer” value [13, 20] was 50 and the “Plant response rating, Pigweed, Palmer” value [13, 21] was 0. For the same compound, the “Plant response rating, Pigweed, Palmer” value [13, 22] was 20, the “Plant response rating, Ragweed” value [14, 16] was 90 and the “Plant response rating, Ragweed” value [14, 17] was 95. The “Plant response rating, Ragweed” value [14, 18] was 100, the “Plant response rating, Ragweed” value [14, 19] was 80 and the “Plant response rating, Ragweed” value [14, 20] was 85. The “Plant response rating, Ragweed” value [14, 21] was 0, the “Plant response rating, Ragweed” value [14, 22] was 5 and the “Plant response rating, Velvetleaf” value [15, 25] was 65. For the same compound, the “Plant response rating, Velvetleaf” value [15, 26] was 0 and the “Plant response rating, Velvetleaf” value [15, 27] was 0.
